Assay results from publication PMC8058733, “A pain killer without analgesic tolerance designed by co-targeting PSD-95-nNOS interaction and α2-containning GABAARs” (Theranostics, 2021).
Entries after “also recorded” stand apart in the source; their conditions may differ.

What was measured:
α1β2γ2 GABAARs = target: T1, α1β2γ2 GABAARs (Homo sapiens, UniProt P14867+P18507+P47870); test: Potentiation of GABA-evoked currents, whole-cell patch-clamp in HEK293 cells transiently expressing recombinant GABAARs; type: cell-based; details: α1β2γ2
T1 construct: Shanghai Genechem Co.,Ltd (γ2 plasmid); host or cells: HEK293
Procedure: (§1) The affinities of drugs for α1, α2, α3 and α5 subunits were studied in the HEK293 cells (from FuHeng Biology, Shanghai, China) transiently expressing recombinant GABAARs (α1β2γ2, α2β3γ2, α3β3γ2 and α5β2γ2) as described previously. Briefly, the HEK293 cells were cultured in MEM medium supplemented with 10% FBS (fetal bovine serum, Gibico), 1% L-glutamine (Gibco) and 1% mycillin (Gibco). Before transfection, the cells were subcultured onto a 3.5cm dish at the ratio of 1:2. Then, the plasmids of α1/α2/α3/α5 (Origene), β2/β3 (Origene) and γ2 (Shanghai Genechem Co.,Ltd ) (5μg total DNA, ratio 1:1:2) were transfected using Fugene®HD transfection reagent (Promega). The γ2 subunit contained GFP from IRES (internal ribosomal entry site) and was used as a marker of the successful transfection. Cells were used for electrophysiology recording 18-36 hours after transfection.
(§2) Electrophysiology recordings from HEK293 cells were performed as described previously. Briefly, whole-cell patch-clamp recordings of GABA-evoked currents were made at 30 °C with the holding potential of -60 mV. The internal solution (solution in recording electrodes) contained (in mM): 120 CsCl, 10 EGTA, 10 HEPES, 4 MgCl2, 0.5 GTP, 2 ATP and pH was adjusted to 7.4 with CsOH and the external solution contained (in mM): 150 NaCl, 10 KCl, 2 CaCl2, 1 MgCl, 10 HEPES, 10 Glucose and pH was adjusted to 7.4 with NaOH. ACSF was bubbled continuously with carbogen (95%O2 and 5%CO2). For the recording of GABA-evoked currents, the slides were transferred to a recording chamber, which was perfused with ACSF at a rate of 4 ml/min. The cells were viewed under upright microscopy (Olympus), and GFP-positive cells were selected to record the currents. The interval time between each different dose of GABA was controlled, 3 to 5 minutes to avoid the desensitization of GABAARs.

α2β3γ2 GABAARs = target: T2, α2β3γ2 GABAARs (Homo sapiens, UniProt P18507+P28472+P47869); test: as above; type: cell-based; details: α2β3γ2
T2 construct: Shanghai Genechem Co.,Ltd (γ2 plasmid); host or cells: HEK293
Procedure: as §1, §2

α3β3γ2 GABAARs = target: T3, α3β3γ2 GABAARs (Homo sapiens, UniProt P18507+P28472+P34903); test: as above; type: cell-based; details: α3β3γ2
T3 construct: Shanghai Genechem Co.,Ltd (γ2 plasmid); host or cells: HEK293
Procedure: as §1, §2

[1] = tested on: SNL-induced mechanical hyperalgesia; test: SNL-induced mechanical hyperalgesia, paw withdrawal threshold; type: in vivo, rat; details: SNL rats, ZL006-05 60 mg/kg/d, i.g., ×11 d
[2] = tested on: SNL-induced thermal hyperalgesia; test: SNL-induced thermal hyperalgesia, paw withdrawal latency; type: in vivo, mice; details: mice, ZL006-05 60 mg/kg, i.g., 0-24 h
Procedure: Neuropathic pain was induced by segmental spinal nerve ligation (SNL). Animals were anesthetized with isoflurane. After the loss of righting reflex, the animal was fixed in the prone position. The SNL model was prepared as described previously: a median skin incision with about 3-5 cm length in L4-S2 level of the mouse back was made, the muscles next to the vertebrae till the sixth lumbar protruding were separated, the L5/L6 joint protruding on the right side was exposed and excised, and L6 processus transversus was partially split so that the L4-L6 spinal nerves on the right side were exposed. L5 nerve was gently isolated and tightly ligated with 5-0 silk thread. […]
Paw withdrawal latency (PWL) response to thermal stimulus was assessed through the Hargreaves test. […] To record the PWL in response to thermal stimulus, each animal was measured five times with a 5-min interval, and the mean value was recorded after excluding maximal and minimum values. […]
(A) Time course of SNL-induced thermal hyperalgesia after treating with ZL006-05 (60 mg/kg, i.g.) in mice. Paw withdrawal latency response to thermal stimulation was detected at 0, 1, 2, 4, 6, 8, 10, 12 and 24 h after drug administration. ( B) Areas under the curve of paw withdrawal latency 0-24 h after treatment calculated from ( A) (F (1,16) = 43.07, ***p < 0.001, two-tailed t-test, n = 9). […]

motor coordination = test: Rotarod test, motor coordination; type: in vivo; details: rats, 30 min after injection, ZL006-05 60 mg/kg, i.v., diazepam 0.5 mg/kg

T2 sequence (P47869 29-451): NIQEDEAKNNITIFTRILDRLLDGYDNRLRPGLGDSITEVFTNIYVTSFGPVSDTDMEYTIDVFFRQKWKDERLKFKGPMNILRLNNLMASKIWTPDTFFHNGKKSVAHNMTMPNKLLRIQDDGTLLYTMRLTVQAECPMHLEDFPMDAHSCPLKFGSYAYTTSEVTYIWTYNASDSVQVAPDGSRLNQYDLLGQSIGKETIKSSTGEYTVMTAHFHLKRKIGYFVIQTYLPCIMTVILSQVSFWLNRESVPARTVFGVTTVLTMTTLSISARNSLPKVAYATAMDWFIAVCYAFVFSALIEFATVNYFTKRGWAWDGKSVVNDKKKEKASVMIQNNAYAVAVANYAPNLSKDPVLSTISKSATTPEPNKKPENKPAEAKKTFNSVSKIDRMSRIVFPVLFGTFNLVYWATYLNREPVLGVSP
T2 sequence (P28472 26-473): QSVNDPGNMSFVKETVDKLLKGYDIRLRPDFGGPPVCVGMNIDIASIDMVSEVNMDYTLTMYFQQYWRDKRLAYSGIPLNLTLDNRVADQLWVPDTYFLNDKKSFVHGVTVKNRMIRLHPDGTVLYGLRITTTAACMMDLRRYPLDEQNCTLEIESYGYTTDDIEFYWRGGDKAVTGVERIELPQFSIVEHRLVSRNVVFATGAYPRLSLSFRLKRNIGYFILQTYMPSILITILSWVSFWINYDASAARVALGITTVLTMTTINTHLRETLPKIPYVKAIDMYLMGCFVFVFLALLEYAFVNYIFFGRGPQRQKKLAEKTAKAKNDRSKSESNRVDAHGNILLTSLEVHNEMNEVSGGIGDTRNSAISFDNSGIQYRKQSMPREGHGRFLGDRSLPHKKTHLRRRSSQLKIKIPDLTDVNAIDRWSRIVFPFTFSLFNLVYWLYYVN
T2 sequence (P18507 40-475): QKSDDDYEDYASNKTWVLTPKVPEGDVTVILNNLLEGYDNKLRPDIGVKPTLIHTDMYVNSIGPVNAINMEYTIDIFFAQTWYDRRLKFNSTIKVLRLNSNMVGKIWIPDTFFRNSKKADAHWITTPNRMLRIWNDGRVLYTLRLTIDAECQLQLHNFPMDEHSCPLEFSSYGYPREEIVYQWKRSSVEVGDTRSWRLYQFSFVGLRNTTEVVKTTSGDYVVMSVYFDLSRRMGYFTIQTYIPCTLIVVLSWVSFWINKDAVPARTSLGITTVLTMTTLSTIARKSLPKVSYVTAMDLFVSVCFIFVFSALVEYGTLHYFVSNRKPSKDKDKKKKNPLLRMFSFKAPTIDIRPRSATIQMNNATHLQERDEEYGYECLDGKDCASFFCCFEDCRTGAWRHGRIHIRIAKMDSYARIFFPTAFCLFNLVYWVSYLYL
T1 sequence (P14867 28-456): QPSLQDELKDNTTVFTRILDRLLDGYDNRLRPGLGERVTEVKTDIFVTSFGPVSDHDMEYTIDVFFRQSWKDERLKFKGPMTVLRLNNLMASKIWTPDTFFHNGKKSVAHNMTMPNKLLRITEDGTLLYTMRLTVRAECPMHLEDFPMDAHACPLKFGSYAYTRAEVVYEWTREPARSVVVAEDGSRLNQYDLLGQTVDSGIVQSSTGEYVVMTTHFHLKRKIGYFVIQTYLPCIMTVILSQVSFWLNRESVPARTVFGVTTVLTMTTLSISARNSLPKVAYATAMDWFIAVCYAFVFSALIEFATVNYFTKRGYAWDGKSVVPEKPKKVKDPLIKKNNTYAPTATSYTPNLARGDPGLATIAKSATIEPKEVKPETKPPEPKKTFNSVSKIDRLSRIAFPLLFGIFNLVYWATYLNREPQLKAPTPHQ
T1 sequence (P47870 25-512 limits assumed): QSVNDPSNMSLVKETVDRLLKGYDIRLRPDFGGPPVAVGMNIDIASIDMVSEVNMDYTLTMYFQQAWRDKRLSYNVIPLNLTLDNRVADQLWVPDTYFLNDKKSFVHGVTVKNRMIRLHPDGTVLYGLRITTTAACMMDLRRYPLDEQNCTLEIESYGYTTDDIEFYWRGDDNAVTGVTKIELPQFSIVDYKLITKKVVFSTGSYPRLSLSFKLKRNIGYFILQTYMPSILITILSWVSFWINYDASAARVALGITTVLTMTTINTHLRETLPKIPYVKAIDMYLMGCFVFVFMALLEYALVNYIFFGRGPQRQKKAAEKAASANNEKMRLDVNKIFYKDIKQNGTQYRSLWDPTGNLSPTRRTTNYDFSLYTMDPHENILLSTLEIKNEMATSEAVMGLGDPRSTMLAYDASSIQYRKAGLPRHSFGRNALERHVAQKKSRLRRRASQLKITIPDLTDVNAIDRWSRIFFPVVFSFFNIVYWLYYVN
T1 sequence (P18507 40-475): as the sequence (P18507 40-475) above
T3 sequence (P34903 29-492): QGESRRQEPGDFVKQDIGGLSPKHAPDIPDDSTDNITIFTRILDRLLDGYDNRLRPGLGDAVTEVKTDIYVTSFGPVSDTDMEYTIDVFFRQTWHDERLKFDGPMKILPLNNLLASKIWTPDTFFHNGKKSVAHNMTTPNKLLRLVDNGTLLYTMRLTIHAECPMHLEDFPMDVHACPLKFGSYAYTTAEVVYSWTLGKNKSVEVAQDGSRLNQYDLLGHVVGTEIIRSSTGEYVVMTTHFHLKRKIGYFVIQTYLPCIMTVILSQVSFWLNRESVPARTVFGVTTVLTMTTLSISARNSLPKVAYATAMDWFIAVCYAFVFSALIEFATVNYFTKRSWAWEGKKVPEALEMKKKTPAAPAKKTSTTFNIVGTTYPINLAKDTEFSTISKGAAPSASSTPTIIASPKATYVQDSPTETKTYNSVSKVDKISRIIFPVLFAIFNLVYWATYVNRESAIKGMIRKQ
T3 sequence (P28472 26-473): as the sequence (P28472 26-473) above
T3 sequence (P18507 40-475): as the sequence (P18507 40-475) above

CC1(C)C2CCC1(C)C(OC(=O)c1ccc(NCc3cc(Cl)cc(Cl)c3O)cc1O)C2 (stereo not drawn) [ZL006-05]
Effect on GABA-evoked currents of α1-containing GABAAR (in words) (α1β2γ2 GABAARs): does not potentiate α1GABAAR | Effect on α2-containing GABAAR (in words) (α2β3γ2 GABAARs): very high affinity to α2-containing GABAAR; also recorded: very high efficacy and potency on α2GABAARs | Effect on α3GABAAR (in words) (α3β3γ2 GABAARs): low efficacy on α3GABAAR | Analgesic tolerance, mechanical hyperalgesia [1]: did not produce analgesic tolerance | Effect on SNL-induced thermal hyperalgesia [2]: reduced SNL-induced mechanical hyperalgesia and thermal pain | Motor coordination, time spent on the accelerating rotarod (motor coordination): had no effect
